We go through 10 compounds from patent US20240116985A1, “STAPLED PEPTIDES AND METHODS THEREOF” (priority 2020, published 2024).

The target in data set [1] is T1, full-length beta-Catenin (Uniprot ID P35222) (Homo sapiens, UniProt P35222).
T1 construct: 10 nM full-length beta-Catenin (Uniprot ID P35222)
T1 sequence (P35222 1-781): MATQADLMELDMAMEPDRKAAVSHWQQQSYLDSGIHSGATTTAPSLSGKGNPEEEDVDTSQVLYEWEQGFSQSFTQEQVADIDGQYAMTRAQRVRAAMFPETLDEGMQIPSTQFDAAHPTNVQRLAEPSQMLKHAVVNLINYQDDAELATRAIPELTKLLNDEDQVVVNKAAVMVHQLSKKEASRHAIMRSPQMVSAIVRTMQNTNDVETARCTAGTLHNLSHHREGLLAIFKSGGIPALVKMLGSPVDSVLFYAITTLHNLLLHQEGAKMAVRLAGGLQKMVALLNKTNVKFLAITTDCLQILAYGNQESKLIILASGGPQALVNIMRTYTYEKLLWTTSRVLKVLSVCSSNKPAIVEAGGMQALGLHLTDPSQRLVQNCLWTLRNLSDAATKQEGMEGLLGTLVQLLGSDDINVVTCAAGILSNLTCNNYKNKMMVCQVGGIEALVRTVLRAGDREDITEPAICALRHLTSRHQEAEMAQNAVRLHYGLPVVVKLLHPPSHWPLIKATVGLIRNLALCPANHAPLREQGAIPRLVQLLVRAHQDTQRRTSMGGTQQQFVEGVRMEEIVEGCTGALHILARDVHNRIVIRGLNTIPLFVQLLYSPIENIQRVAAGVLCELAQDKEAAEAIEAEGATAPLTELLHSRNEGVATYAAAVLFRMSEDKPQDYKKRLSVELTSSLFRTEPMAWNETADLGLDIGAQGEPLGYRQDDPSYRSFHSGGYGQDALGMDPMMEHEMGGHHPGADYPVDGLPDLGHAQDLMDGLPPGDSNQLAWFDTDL
The data set is described as follows: Fluorescence polarization IC50 (beta-catenin / 5FAM-TCF4 10-53 competition). In kind it is binding. For orientation: Fluorescence polarisation rises when a labelled molecule tumbles more slowly, as on binding a larger partner.

The nature of a further data set: Solubility in PBS. The data set is classed as physicochemical. Summed up: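 Steps: ultracentrifuge the peptide PBS solution, inject the supernatant on HPLC, inject a 50 μM peptide DMSO solution as reference, then calculate solubility as area ratio (PBS/DMSO) × 50 uM.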
The nature of another data set: CHI Log D procedure. The conditions noted are these: for CHI Log D: pH 7.4; for chromatographic logD: pH 7.4, CHI Log D. The data set is classed as physicochemical.
Where [2] appears, read: fluorescence polarization, read-out: beta-Catenin FP IC50.

Converted amounts (≈) assume the structure as drawn. Read-outs that look alike come from different tables or passages of the source.

As usually defined, the Solubility is how much of the substance goes into solution per volume. High values mean a readily soluble substance, low ones a poorly soluble substance. As for `CC(=O)N1CCC[C@]12CC=CCCCC1(CCCC=CCCCCCC[C@@](C)(C(=O)N[C@@H](Cc3ccccc3)C(=O)N[C@@H](Cc3csc4ccccc34)C(=O)N[C@@H](Cc3c[nH]cn3)C(N)=O)NC(=O)[C@H]([C@@H](C)O)NC(=O)[C@H](Cc3ccccc3)NC(=O)[C@H](C)NC(=O)[C@H](C)NC(=O)[C@H](CCC(=O)O)NC(=O)[C@H](CC(=O)O)NC1=O)NC(=O)[C@H](CC(C)C)NC(=O)[C@H](CC(=O)O)NC2=O` (stereo partly drawn) [I-618, Ac-PL3-Asp-Leu-B5-Asp-Glu-Ala-Ala-Phe-Thr-S8-Phe-BztA-His-NH2], the IC50 in data set [1] (setting [2]) and in data set [1] (read-out: FP EC50) was 135 nM throughout. Also, in “Solubility in PBS”, the “Solubility” value came to 10 µM (≈ 18.7 µg/mL). Also, in “CHI Log D procedure”, the “CHI Log D” value is 2.617.
For the compound `CC(=O)N1CCC[C@]12CC=CCCCC1(CCCC=CCCCCCC[C@@](C)(C(=O)N[C@@H](Cc3ccccc3)C(=O)N[C@@H](Cc3csc4ccccc34)C(=O)N[C@@H](CCC(N)=O)C(N)=O)NC(=O)[C@H](CC(N)=O)NC(=O)[C@H](Cc3ccccc3)NC(=O)[C@H](C)NC(=O)[C@H](C)NC(=O)[C@H](CCC(=O)O)NC(=O)[C@H](CC(=O)O)NC1=O)NC(=O)[C@H](CC1CCCCC1)NC(=O)[C@H](CC(=O)O)NC2=O` (stereo partly drawn) [I-619, Ac-PL3-Asp-Cha-B5-Asp-Glu-Ala-Ala-Phe-Asn-S8-Phe-BztA-Gln-NH2], the IC50 in data set [1] (setting [2]) and in data set [1] (read-out: FP EC50) was 44 nM each time. Moreover, the “Solubility” value in “Solubility in PBS” is 47 µM (≈ 89.7 µg/mL). Also, the “CHI Log D” value in “CHI Log D procedure” is 2.677.
What is called chromatographic logD is a lipophilicity value derived from retention on a column. Take `CC(=O)N1CCC[C@]12CC=CCCCC1(CCCC=CCCCCCC[C@@](C)(C(=O)N[C@@H](Cc3ccccc3)C(=O)N[C@@H](Cc3csc4ccccc34)C(=O)N[C@@H](CCC(N)=O)C(N)=O)NC(=O)[C@H](CCCNC(N)=O)NC(=O)[C@H](Cc3ccccc3)NC(=O)[C@H](C)NC(=O)[C@H](C)NC(=O)[C@H](CCC(=O)O)NC(=O)[C@H](CC(=O)O)NC1=O)NC(=O)[C@H](CC(C)C)NC(=O)[C@H](CC(=O)O)NC2=O` (stereo partly drawn) [I-621, Ac-PL3-Asp-Leu-B5-Asp-Glu-Ala-Ala-Phe-Cit-S8-Phe-BztA-Gln-NH2]: in data set [1] (setting [2]), the IC50 worked out at 58 nM. Moreover, the “Solubility” value in the data set “Solubility in PBS” amounted to 50 µM (≈ 95.6 µg/mL). The compound further came in with a chromatographic logD in the data set “CHI Log D procedure” of 2.34.
For `CC(=O)N1CCC[C@]12CC=CCCCC1(CCCC=CCCCCCC[C@@](C)(C(=O)N[C@@H](Cc3ccccc3)C(=O)N[C@@H](Cc3csc4ccccc34)C(=O)N[C@@H](CCC(N)=O)C(N)=O)NC(=O)[C@H]([C@@H](C)O)NC(=O)[C@H](Cc3ccccc3)NC(=O)[C@H](C)NC(=O)[C@H](C)NC(=O)[C@H](CCC(=O)O)NC(=O)[C@H](CC(=O)O)NC1=O)NC(=O)[C@H](CC(C)C)NC(=O)[C@H](CC(=O)O)NC2=O` (stereo partly drawn) [I-622, Ac-PL3-Asp-Leu-B5-Asp-Glu-Ala-Ala-Phe-Thr-S8-Phe-BztA-Gln-NH2], the IC50 in data set [1] (setting [2]) and in data set [1] (read-out: FP EC50) was 230 nM in each case. For the same compound, the “Solubility” value in the data set “Solubility in PBS” came to 45 µM (≈ 83.5 µg/mL). The “CHI Log D” value in the data set “CHI Log D procedure” is 2.453.
On to `CC(=O)N1CCC[C@]12CC=CCCCC1(CCCC=CCCCCCC[C@@](C)(C(=O)N[C@@H](Cc3ccccc3)C(=O)N[C@@H](Cc3csc4ccccc34)C(=O)N[C@@H](CCC(N)=O)C(N)=O)NC(=O)[C@H]([C@@H](C)O)NC(=O)[C@H](Cc3ccccc3)NC(=O)[C@H](C)NC(=O)[C@H](C)NC(=O)[C@H](CCC(=O)O)NC(=O)[C@H](CC(=O)O)NC1=O)NC(=O)[C@H](CC(C)C)NC(=O)[C@H](CC(=O)O)NC2=O` (stereo partly drawn) [I-623, Ac-PL3-Asp-Leu-B5-Asp-Glu-Ala-Ala-Phe-Thr-S8-Phe-BztA-Gln-NH2], for which the IC50 in data set [1] (setting [2]) and in data set [1] (read-out: FP EC50) was 103 nM in each case. The “Solubility” value in “Solubility in PBS” is 44 µM (≈ 81.7 µg/mL). For the same compound, the “CHI Log D” value in “CHI Log D procedure” came out at 2.494.
Regarding `CC(=O)N1CCC[C@]12CC=CCCCC1(CCCC=CCCCCCC[C@@](C)(C(=O)N[C@@H](Cc3ccccc3)C(=O)N[C@@H](Cc3csc4ccccc34)C(N)=O)NC(=O)[C@H](CC(N)=O)NC(=O)[C@H](Cc3ccccc3)NC(=O)[C@H](C)NC(=O)[C@H](C)NC(=O)[C@H](CCC(=O)O)NC(=O)[C@H](CC(=O)O)NC1=O)NC(=O)[C@H](CC(C)C)NC(=O)[C@H](CC(=O)O)NC2=O` (stereo partly drawn) [I-624, Ac-PL3-Asp-Leu-B5-Asp-Glu-Ala-Ala-Phe-Asn-S8-Phe-BztA-NH2], the IC50 in data set [1] (setting [2]) and in data set [1] (read-out: FP EC50) was 273 nM throughout. The “Solubility” value in the data set “Solubility in PBS” is 27 µM (≈ 47 µg/mL). In addition, in “CHI Log D procedure”, the “CHI Log D” value came to 2.598.
As to `CC(=O)N1CCC[C@]12CC=CCCCC1(CCCC=CCCCCCC[C@@](C)(C(=O)N[C@@H](Cc3ccccc3)C(=O)N[C@@H](Cc3csc4ccccc34)C(N)=O)NC(=O)[C@H](CC(N)=O)NC(=O)[C@H](Cc3ccccc3)NC(=O)[C@H](C)NC(=O)[C@H](C)NC(=O)[C@H](CCC(=O)O)NC(=O)[C@H](CC(=O)O)NC1=O)NC(=O)[C@H](CC(C)C)NC(=O)[C@H](CC(=O)O)NC2=O` (stereo partly drawn) [I-625, Ac-PL3-Asp-Leu-B5-Asp-Glu-Ala-Ala-Phe-Asn-S8-Phe-BztA-NH2], the IC50 in data set [1] (setting [2]) and in data set [1] (read-out: FP EC50) was 119 nM each time. Moreover, the “Solubility” value in the data set “Solubility in PBS” worked out at 47 µM (≈ 81.8 µg/mL). The “CHI Log D” value in the data set “CHI Log D procedure” was found to be 2.681.
For the compound `CC(=O)N1CCC[C@]12CC=CCCCC1(CCCC=CCCCCCC[C@@](C)(C(=O)N[C@@H](Cc3ccccc3)C(=O)N[C@@H](Cc3csc4ccccc34)C(N)=O)NC(=O)[C@H](CC(N)=O)NC(=O)[C@H](Cc3ccccc3)NC(=O)[C@H](C)NC(=O)[C@H](C)NC(=O)[C@H](CCC(=O)O)NC(=O)[C@H](CC(=O)O)NC1=O)NC(=O)[C@H](CC1CCCCC1)NC(=O)[C@H](CC(=O)O)NC2=O` (stereo partly drawn) [I-627, Ac-PL3-Asp-Cha-B5-Asp-Glu-Ala-Ala-Phe-Asn-S8-Phe-BztA-NH2], the IC50 in data set [1] (setting [2]) and in data set [1] (read-out: FP EC50) was 338 nM in each case. The “Solubility” value in the data set “Solubility in PBS” amounted to 47 µM (≈ 83.7 µg/mL). In the data set “CHI Log D procedure”, the “CHI Log D” value is on record as 3.002.
As for `CC(=O)N1CCC[C@]12CC=CCCCC1(CCCC=CCCCCCC[C@@](C)(C(=O)N[C@@H](Cc3ccccc3)C(=O)N[C@@H](Cc3csc4ccccc34)C(N)=O)NC(=O)[C@H](CCCNC(N)=O)NC(=O)[C@H](Cc3ccccc3)NC(=O)[C@H](C)NC(=O)[C@H](C)NC(=O)[C@H](CCC(=O)O)NC(=O)[C@H](CC(=O)O)NC1=O)NC(=O)[C@H](CC(C)C)NC(=O)[C@H](CC(=O)O)NC2=O` (stereo partly drawn) [I-628, Ac-PL3-Asp-Leu-B5-Asp-Glu-Ala-Ala-Phe-Cit-S8-Phe-BztA-NH2], the IC50 stood at 60 nM in data set [1] (setting [2]) and 713 nM in data set [1] (read-out: FP EC50). In addition, the “Solubility” value in “Solubility in PBS” was found to be 47 µM (≈ 83.9 µg/mL). For the same compound, in “CHI Log D procedure”, the “CHI Log D” value is listed as 3.103.
As for `CC[C@H](C)[C@@H]1NC(=O)[C@H](CC(=O)O)NC(=O)[C@]2(CC=CCCCC3(CCCC=CCCCCCC[C@@](C)(C(=O)N[C@@H](Cc4ccccc4)C(=O)N[C@@H](Cc4csc5ccccc45)C(=O)N[C@@H](CCCNC(=N)N)C(N)=O)NC(=O)[C@H](CCC(N)=O)NC(=O)[C@H](Cc4ccccc4)NC(=O)[C@H](C)NC(=O)[C@H](C)NC(=O)[C@H](CCC(=O)O)NC(=O)[C@H](CC(=O)O)NC3=O)NC1=O)CCCN2C(C)=O` (stereo partly drawn) [I-633, Ac-PL3-Asp-Ile-B5-Asp-Glu-Ala-Ala-Phe-Gln-S8-Phe-BztA-Arg-NH2], the IC50 in data set [1] (setting [2]) was 88 nM. For the same compound, the “Solubility” value in “Solubility in PBS” came out at 10 µM (≈ 19.1 µg/mL). Further, in “CHI Log D procedure”, the chromatographic logD was 2.62.
